Results reported in publication PMC12596218 (Journal of Lipid Research, 2025).
“And” between values parts separate entries of the source, which are not always exact repeats. Identical values can stand only once. Like-named read-outs stand apart in the source and are kept apart here.

Tests used:
OATP1B1 = conditions: cited from earlier work; for IC50: read-out: IC50 OATP1B1 inhibition
ASBT [1] = conditions: cited from earlier work; for IC50: read-out: IC50 ASBT inhibition
NTCP = target: T1, NTCP (Homo sapiens, UniProt Q14973); experiment: [3H]TC transport and inhibition assay in NTCP-HEK293 cells; type: cell-based; conditions: 1 μM [3H]TC; for IC50: 10 min, NTCP-HEK293, two independent experiments; for NTCP inhibition (in words): inhibitor up to 100 μM
T1 construct: stably transfected with the full open reading frames of human NTCP, ASBT, SOAT, OATP1B1, OATP1B3, OATP2B1, and murine Asbt (mAsbt); expressed in transfected cells; host or cells: HEK293 (Flp-In), stably transfected, tetracycline-induced
T1 sequence (Q14973 1-349): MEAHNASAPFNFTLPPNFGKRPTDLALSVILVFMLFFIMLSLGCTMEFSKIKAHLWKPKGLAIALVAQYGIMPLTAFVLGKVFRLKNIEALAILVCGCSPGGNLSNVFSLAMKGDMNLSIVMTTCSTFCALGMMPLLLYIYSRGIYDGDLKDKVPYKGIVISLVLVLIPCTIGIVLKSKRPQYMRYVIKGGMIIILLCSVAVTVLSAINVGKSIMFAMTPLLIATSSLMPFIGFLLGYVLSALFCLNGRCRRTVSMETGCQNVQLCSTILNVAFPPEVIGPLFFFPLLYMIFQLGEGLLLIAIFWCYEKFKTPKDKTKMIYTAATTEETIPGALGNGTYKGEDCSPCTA
Source text: (§1) Human embryonic kidney HEK293 cells, stably transfected with the full open reading frames of human NTCP, ASBT, SOAT, OATP1B1, OATP1B3, OATP2B1, and murine Asbt (mAsbt) were used as reported ([18], [20], [21], [22], [23]). The NTCP, ASBT, and mAsbt constructs were C-terminally tagged with the FLAG epitope, and the SOAT construct was C-terminally tagged with green fluorescent protein. Non-transfected Flp-In HEK293 cells (Thermo Fisher Scientific) served as the control. All cell lines were maintained at 37°C, 5% CO2 and 95% humidity in DMEM/F-12 medium (Thermo Fisher Scientific) supplemented with 10% fetal calf serum (Sigma-Aldrich), 4 mM L-glutamine (PAA) and penicillin/streptomycin (PAA). Expression of the respective carrier protein was induced by tetracycline treatment at 1 μg/ml (Carl Roth GmbH + Co. KG).
(§2) Cells were seeded onto poly-L-lysine-coated 96-well plates, induced with 1 μg/ml tetracycline, and grown to confluence over 72 h at 37°C. Then, cells were washed with tempered (37°C) phosphate-buffered saline (PBS, containing 137.0 mM NaCl, 2.7 mM KCl, 1.5 mM KH2PO4, and 7.3 mM Na2HPO4, at pH 7.4) and preincubated with 80 μl sodium transport buffer (STB, containing 142.9 mM NaCl, 4.7 mM KCl, 1.2 mM MgSO4, 1.2 mM KH2PO4, 1.8 mM CaCl2, and 20.0 mM HEPES, at pH 7.4) for 5 min at 37°C. For inhibition studies, the medium was replaced by 80 μl STB containing the respective inhibitor or solvent alone and cells were further incubated for 5 min at 37°C. Transport experiments were started by adding 20 μl of a 5-fold concentrated substrate solution (solved in STB). For transport experiments under sodium-free conditions the same buffer composition was used as for STB, but sodium chloride was substituted with equimolar concentrations of choline chloride as previously reported ([20], [24]). Transport experiments were stopped by washing twice with ice-cold PBS and the plates were kept cool on ice until adding the lysis buffer [1% sodium dodecyl sulfate (SDS) and 1 N NaOH]. Then, the cell-associated radioactivity of the respective tritium-labeled substrate or ligand was quantified by liquid scintillation counting using MicroScint-20 scintillation cocktail (Revvity) in a Packard Microplate Scintillation Counter TopCount NXT (Packard Instrument Company). For IC50 transport inhibition measurements, the mean uptake values measured in non-carrier-expressing HEK293 control cells were defined as 0% uptake control and were subtracted from all other values. Values from cells without inhibitor and solvent alone were set to 100%. Finally, all net transport data were expressed as uptake or binding as % of control. All transport or inhibition graphs were generated with GraphPad Prism 6 (GraphPad). Determination of half maximal inhibitory concentrations (IC50) was done by nonlinear regression analysis using the equation log (inhibitor) versus response—variable slope settings. All data points of the IC50 curves represent means ± SD of quadruplicate determinations. For Km measurements, BS uptake in the absence of sodium was regarded as carrier-independent unspecific uptake and was subtracted from the transport rates in the presence of sodium to obtain carrier-specific uptake rates (indicated as dashed lines). From the specific uptake rates, Michaelis Menten Km values were calculated by non-linear regression analysis.

ASBT [2] = target: T2, ASBT (Homo sapiens, UniProt Q12908); experiment: [3H]TC transport and inhibition assay in ASBT-HEK293 cells; type: cell-based; conditions: for IC50: 1 μM [3H]TC, 10 min, ASBT-HEK293, two independent experiments
T2 construct: stably transfected with the full open reading frames of human NTCP, ASBT, SOAT, OATP1B1, OATP1B3, OATP2B1, and murine Asbt (mAsbt); expressed in transfected cells; host or cells: HEK293 (Flp-In), stably transfected, tetracycline-induced
T2 sequence (Q12908 1-348): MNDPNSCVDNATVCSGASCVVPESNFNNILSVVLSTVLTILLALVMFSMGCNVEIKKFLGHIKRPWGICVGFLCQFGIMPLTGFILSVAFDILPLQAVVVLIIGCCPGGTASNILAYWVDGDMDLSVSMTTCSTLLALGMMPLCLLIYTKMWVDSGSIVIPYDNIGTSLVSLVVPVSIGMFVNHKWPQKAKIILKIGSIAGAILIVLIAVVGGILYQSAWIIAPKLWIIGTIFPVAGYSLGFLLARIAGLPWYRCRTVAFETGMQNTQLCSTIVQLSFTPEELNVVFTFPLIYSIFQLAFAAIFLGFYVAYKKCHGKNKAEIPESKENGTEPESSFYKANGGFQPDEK
Source text: as §1, §2

SMILES: CCCCC1(CCCC)CN(c2ccccc2)c2cc(SC)c(OCC(=O)N[C@@H](C(=O)NCC(=O)O)c3ccccc3)cc2S(=O)(=O)C1 [elobixibat]
- IC50 (OATP1B1; in vitro studies, ref PMDA Goofice Report on the Deliberation Results): 258 nM
- IC50 (ASBT [1]; ref PMDA Goofice Report on the Deliberation Results): 0.53 nM
- IC50 ratio for ASBT versus NTCP inhibition (ASBT [1]; reported by the PMDA, ref PMDA): 0.0022
- IC50 (NTCP): 36300 nM and 66100 nM
- IC50 (ASBT [2]): 110 nM and 230 nM
- IC50 ratio for ASBT versus NTCP inhibition (ASBT [2]; measured in this study): 0.002-0.006

SMILES: CCCCC1(CCCC)CS(=O)(=O)c2ccc(N(C)C)cc2[C@@H](c2ccc(OCc3ccc(C[N+]45CCN(CC4)CC5)cc3)cc2)[C@H]1O [maralixibat]
- OATP1B1 inhibition (in words) (OATP1B1; in vitro, ref FDA NDA 214662 Livmarli): In vitro, maralixibat did not inhibit the transporters OATP1B1 and OATP1B3.
- IC50 (ASBT [1]; ASBT expressed in baby hamster kidney H-14 cell line, ref FDA NDA 214662 Livmarli): 0.28 nM
- IC50 (NTCP): 91500 nM and 98500 nM

SMILES: CCCCC1(CCCC)CN(c2ccccc2)c2cc(SC)c(OCC(=O)N[C@@H](C(=O)N[C@@H](CC)C(=O)O)c3ccc(O)cc3)cc2S(=O)(=O)N1 [odevixibat]
- IC50 (OATP1B1; in vitro studies, ref FDA NDA 215498 BYLVAY): 308 nM
- OATP1B1 inhibition (in words) (OATP1B1; ref EMA EPAR Product Information Bylvay): Odevixibat does not inhibit OATP1B1 and OATP1B3.
- IC50 (ASBT [1]; ASBT-expressing HEK293 cells, ref EMA EPAR Risk management plan for odevixibat): 0.13 nM
- IC50 (NTCP): 9900 nM and 17000 nM
- IC50 (ASBT [2]): 680 nM and 990 nM

SMILES: CCCCC1(CCCC)CS(=O)(=O)c2ccc(N(C)C)cc2[C@@H](c2ccc(OCCCC[N+]34CCN(CC3)CC4)cc2)[C@H]1O [SC-435]
- NTCP inhibition (in words) (NTCP): no significant NTCP inhibition
- IC50 (ASBT [2]): 200 nM and 230 nM

SMILES: CCCC[C@]1(CC)CS(=O)(=O)c2cc(CNC(CC(=O)O)CC(=O)O)c(OC)cc2[C@@H](c2ccccc2)N1 [linerixibat]
- Substrate of OATP1B1 (OATP1B1): is a substrate
- IC50 (OATP1B1; ref 65 Zamek-Gliszczynski et al. (2021)): 2690 nM
- NTCP inhibition (in words) (NTCP): no significant NTCP inhibition
- IC50 (ASBT [2]): 180 nM and 250 nM
- Transport inhibition at highest substrate concentration (ASBT [2]; 500 μM [3H]TC): full transport inhibition
- Slope of IC50 values versus TC substrate concentration (ASBT [2]; [3H]TC 0.3-500 μM, linear regression): 4.0 × 10^−4
